Our source for the AC50 values is ChEMBL document CHEMBL5291721, “A preclinical secondary pharmacology resource illuminates target-adverse drug reaction associations of marketed drugs” (Nat Commun, 2023).

Structures are written as SMILES. A value given as a limit tells only on which side of the number the result lay.

Among the targets are Histamine H1 receptor (Homo sapiens, UniProt P35367); D(3) dopamine receptor (Homo sapiens, UniProt P35462); Histamine H3 receptor (Homo sapiens, UniProt Q9Y5N1); Melanocortin receptor 4 (Homo sapiens, UniProt P32245).
The target in experiment [1] is T1, Alpha-2A adrenergic receptor (Homo sapiens, UniProt P08913).
T1 sequence (P08913 whole entry): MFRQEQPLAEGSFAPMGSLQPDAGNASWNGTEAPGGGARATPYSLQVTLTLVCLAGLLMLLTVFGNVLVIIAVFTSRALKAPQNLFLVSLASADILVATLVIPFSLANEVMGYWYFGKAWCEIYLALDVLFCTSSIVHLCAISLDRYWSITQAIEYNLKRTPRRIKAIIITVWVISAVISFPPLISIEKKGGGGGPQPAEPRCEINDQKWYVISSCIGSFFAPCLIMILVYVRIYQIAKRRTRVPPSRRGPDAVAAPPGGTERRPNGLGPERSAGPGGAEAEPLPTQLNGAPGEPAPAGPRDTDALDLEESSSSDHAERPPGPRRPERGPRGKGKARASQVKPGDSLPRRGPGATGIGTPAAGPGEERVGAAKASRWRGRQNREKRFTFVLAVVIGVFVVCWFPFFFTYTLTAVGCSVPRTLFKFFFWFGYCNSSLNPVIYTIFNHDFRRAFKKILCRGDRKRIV
Type of experiment: functional, cell-based.

Experiment [2] addresses T2, Gastrin/cholecystokinin type B receptor (Homo sapiens, UniProt P32239).
T2 sequence (P32239 whole entry): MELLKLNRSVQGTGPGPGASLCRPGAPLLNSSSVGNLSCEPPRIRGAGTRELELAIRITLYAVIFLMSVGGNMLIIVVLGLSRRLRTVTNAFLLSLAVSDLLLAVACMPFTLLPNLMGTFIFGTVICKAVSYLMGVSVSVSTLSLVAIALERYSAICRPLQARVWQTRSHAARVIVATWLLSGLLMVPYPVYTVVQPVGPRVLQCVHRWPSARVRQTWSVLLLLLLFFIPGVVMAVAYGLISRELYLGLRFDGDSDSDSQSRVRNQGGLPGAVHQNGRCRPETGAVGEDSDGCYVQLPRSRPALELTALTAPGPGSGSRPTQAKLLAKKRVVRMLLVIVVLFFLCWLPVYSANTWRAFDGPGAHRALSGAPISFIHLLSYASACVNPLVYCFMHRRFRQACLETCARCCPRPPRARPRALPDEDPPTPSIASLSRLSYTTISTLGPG

The target in the next experiment is Cannabinoid receptor 1 (Homo sapiens, UniProt P21554). Type of experiment: functional, cell-based.
Chain of Cannabinoid receptor 1 (P21554 whole entry): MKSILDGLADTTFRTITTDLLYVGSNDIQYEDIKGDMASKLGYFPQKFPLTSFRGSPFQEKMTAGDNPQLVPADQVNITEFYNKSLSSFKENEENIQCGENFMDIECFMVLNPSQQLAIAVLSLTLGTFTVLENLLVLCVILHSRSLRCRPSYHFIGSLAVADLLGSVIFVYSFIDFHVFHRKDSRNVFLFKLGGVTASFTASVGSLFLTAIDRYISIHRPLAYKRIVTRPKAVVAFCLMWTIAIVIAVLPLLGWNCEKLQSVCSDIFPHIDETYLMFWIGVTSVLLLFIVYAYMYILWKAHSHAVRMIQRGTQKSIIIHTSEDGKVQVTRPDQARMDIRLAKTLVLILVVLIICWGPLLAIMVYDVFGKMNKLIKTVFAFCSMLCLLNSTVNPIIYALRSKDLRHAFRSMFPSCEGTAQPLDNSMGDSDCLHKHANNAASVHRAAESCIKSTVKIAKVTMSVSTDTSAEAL
Experiment [3] deals with Muscarinic acetylcholine receptor M3 (Homo sapiens, UniProt P20309).
Chain of Muscarinic acetylcholine receptor M3 (P20309 whole entry): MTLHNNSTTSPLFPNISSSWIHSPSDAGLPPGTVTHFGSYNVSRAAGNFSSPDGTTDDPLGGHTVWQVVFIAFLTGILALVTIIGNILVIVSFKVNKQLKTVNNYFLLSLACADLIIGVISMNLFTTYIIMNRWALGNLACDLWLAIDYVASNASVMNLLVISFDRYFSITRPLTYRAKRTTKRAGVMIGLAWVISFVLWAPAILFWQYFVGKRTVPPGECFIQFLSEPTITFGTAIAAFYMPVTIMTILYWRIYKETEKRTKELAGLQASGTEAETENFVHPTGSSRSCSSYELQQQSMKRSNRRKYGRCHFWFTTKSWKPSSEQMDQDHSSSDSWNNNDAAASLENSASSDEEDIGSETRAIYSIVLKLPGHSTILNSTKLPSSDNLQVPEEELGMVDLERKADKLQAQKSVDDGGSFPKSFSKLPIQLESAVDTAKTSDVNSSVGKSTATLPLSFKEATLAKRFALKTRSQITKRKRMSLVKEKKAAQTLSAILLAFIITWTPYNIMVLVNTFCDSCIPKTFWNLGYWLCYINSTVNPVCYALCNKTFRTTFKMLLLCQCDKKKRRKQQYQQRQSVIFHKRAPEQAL
The target of experiment [4] is T3, Amine oxidase [flavin-containing] A (Homo sapiens, UniProt P21397).
T3 sequence (P21397 whole entry): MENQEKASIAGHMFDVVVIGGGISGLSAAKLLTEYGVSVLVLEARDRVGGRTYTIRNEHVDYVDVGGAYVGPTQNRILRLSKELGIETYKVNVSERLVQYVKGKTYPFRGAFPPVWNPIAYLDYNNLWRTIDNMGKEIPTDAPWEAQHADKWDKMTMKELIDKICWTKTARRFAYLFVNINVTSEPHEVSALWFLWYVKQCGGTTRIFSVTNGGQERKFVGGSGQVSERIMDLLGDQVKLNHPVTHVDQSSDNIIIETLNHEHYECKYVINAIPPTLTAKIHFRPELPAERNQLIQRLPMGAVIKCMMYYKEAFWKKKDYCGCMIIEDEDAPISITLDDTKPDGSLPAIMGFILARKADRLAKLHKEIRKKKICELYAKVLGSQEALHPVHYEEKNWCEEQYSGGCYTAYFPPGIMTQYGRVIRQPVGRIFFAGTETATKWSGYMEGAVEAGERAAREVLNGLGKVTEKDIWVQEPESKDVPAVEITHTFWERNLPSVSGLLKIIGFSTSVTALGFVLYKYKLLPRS
Type of experiment: functional.

In experiment [5] the target is T4, 5-hydroxytryptamine receptor 2C (Homo sapiens, UniProt P28335).
T4 sequence (P28335 whole entry): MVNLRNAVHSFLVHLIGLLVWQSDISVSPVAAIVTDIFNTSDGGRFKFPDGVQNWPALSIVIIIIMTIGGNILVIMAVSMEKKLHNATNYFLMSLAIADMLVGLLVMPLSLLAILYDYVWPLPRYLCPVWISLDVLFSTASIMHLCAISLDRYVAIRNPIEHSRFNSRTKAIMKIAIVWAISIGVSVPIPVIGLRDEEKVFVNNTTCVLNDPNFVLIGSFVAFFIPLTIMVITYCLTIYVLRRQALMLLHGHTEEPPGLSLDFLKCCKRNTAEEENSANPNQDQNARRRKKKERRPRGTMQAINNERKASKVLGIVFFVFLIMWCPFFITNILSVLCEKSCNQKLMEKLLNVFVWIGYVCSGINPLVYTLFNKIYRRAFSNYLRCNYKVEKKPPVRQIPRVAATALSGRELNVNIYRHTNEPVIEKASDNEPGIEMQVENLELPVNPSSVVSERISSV

Experiment [6] deals with Sodium-dependent noradrenaline transporter (Homo sapiens, UniProt P23975).
Chain of Sodium-dependent noradrenaline transporter (P23975 whole entry): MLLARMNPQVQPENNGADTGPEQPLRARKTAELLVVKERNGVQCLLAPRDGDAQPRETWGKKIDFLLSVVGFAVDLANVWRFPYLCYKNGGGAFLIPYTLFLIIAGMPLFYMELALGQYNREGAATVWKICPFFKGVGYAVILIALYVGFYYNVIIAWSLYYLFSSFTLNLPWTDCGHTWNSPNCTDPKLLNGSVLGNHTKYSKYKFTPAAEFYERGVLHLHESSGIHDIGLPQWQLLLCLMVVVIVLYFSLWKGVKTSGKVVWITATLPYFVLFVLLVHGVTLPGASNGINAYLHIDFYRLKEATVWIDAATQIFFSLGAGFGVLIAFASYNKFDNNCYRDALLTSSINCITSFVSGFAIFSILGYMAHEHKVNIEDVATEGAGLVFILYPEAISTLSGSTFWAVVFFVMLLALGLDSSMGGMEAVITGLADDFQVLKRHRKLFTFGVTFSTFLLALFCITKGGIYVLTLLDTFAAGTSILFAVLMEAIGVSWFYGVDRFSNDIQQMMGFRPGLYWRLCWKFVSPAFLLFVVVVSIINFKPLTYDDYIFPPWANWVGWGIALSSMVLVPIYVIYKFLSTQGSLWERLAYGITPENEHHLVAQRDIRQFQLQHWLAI
Further: assay procedure not described here.

Chain of D(3) dopamine receptor (P35462 whole entry): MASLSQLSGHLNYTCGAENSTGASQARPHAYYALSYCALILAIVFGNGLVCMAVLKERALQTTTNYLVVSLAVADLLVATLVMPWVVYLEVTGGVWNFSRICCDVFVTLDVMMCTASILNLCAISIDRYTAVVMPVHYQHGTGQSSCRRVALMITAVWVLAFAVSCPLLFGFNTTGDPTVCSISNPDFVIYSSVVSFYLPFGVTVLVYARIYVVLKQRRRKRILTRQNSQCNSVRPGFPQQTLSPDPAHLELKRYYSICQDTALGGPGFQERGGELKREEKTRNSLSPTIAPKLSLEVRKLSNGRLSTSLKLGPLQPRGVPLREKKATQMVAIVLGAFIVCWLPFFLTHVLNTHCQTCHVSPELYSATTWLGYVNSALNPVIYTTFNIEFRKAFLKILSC
Chain of Histamine H3 receptor (Q9Y5N1 whole entry): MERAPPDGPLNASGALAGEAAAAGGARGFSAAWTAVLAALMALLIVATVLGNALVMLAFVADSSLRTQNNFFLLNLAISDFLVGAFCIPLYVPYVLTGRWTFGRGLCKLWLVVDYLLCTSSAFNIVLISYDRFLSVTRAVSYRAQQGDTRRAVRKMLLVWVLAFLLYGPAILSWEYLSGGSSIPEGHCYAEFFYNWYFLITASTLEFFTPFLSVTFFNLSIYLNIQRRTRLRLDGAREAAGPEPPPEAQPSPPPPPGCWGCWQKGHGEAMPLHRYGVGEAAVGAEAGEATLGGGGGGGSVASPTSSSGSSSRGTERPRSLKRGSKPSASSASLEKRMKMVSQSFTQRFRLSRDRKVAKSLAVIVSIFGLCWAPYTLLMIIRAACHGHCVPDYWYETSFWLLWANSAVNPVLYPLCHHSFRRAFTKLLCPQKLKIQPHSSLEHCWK
Chain of Histamine H1 receptor (P35367 whole entry): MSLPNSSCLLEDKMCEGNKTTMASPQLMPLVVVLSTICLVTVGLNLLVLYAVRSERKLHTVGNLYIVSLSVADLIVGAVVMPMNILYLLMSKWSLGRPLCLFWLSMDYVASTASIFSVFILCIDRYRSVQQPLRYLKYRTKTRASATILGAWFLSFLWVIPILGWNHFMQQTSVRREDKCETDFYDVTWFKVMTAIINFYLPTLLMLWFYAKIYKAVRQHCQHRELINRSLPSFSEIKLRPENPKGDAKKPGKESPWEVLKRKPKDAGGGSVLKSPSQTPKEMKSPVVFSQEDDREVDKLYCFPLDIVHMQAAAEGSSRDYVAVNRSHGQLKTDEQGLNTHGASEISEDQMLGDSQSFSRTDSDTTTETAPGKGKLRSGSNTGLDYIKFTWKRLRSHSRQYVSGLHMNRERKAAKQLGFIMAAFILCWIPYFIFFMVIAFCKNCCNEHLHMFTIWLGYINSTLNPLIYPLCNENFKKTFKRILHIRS
Chain of Melanocortin receptor 4 (P32245 whole entry): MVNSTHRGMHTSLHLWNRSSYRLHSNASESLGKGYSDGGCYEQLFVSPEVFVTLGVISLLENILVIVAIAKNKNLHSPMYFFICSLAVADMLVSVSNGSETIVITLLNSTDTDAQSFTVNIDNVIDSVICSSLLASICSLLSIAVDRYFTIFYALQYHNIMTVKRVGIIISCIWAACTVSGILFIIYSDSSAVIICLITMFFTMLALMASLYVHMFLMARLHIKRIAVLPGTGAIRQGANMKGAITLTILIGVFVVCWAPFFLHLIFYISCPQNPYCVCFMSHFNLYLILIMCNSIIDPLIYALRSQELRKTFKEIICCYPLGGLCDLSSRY

As to `O=C(Cn1ccnc1[N+](=O)[O-])NCc1ccccc1` [BENZNIDAZOLE], the AC50 (in experiment [1]; at Histamine H1 receptor; in experiment [2]; at Cannabinoid receptor 1; on D(3) dopamine receptor; in experiment [3]) was greater than 30 µM each time. Further, the AC50 (in experiment [4]; in experiment [5]; in experiment [6]; at Histamine H3 receptor) was greater than 30 µM throughout.
`CCCC(=O)N1CCCN(c2nc(N)c3cc(OC)c(OC)cc3n2)CC1` [BUNAZOSIN]: the AC50 in experiment [1] is 11 µM; at Histamine H1 receptor it was greater than 30 µM; in [2] it was greater than 30 µM; at Cannabinoid receptor 1, greater than 30 µM; on D(3) dopamine receptor, 21 µM; in experiment [3], greater than 30 µM. Also, the AC50 (in [4]; in experiment [5]; in experiment [6]; at Histamine H3 receptor) was greater than 30 µM throughout.
Consider `NS(=O)(=O)c1cc2c(cc1Cl)NC(CC1CCCC1)NS2(=O)=O` (configuration not stated) [CYCLOPENTHIAZIDE], for which the AC50 (in [1]; at Histamine H1 receptor; at Cannabinoid receptor 1; on D(3) dopamine receptor; in experiment [3]; in experiment [4]) was greater than 30 µM throughout. Also, the AC50 in [5] is greater than 30 µM.
Take `COCC1=C(C(=O)OC(C)OC(=O)OC(C)C)N2C(=O)[C@@H](NC(=O)/C(=N\OC)c3csc(N)n3)[C@H]2SC1` (some centres not stated) [CEFPODOXIME PROXETIL]: the AC50 (in [1]; on Histamine H1 receptor; at Cannabinoid receptor 1; on D(3) dopamine receptor; in experiment [3]; in [4]) was greater than 30 µM in each case. Besides, the AC50 in experiment [5] was greater than 30 µM.
For the molecule `O=P(O)(O)C(O)(Cc1cccnc1)P(=O)(O)O` [RISEDRONIC ACID], the AC50 (in experiment [1]; in experiment [2]; at Cannabinoid receptor 1; on D(3) dopamine receptor; in experiment [4]; at Melanocortin receptor 4) was greater than 30 µM in each case. The AC50 (in [5]; in experiment [6]; on Histamine H3 receptor) was greater than 30 µM each time.
Turning to `CN1C(=O)N(C)C2C1N(C)C(=O)N2C` (configuration not stated) [MEBICAR], the AC50 (in [1]; on Histamine H1 receptor; on Cannabinoid receptor 1; on D(3) dopamine receptor; in experiment [3]; in experiment [4]) was greater than 30 µM throughout. The molecule further gave a concentration at half-maximal activity (AC50) in [5] greater than 30 µM.
With `CC(C(O)c1ccc(O)cc1)N1CCC(Cc2ccccc2)CC1` (configuration not stated) [IFENPRODIL], the AC50 in experiment [1] is 3.8 µM; at Histamine H1 receptor it was 1 µM; in experiment [2], greater than 30 µM; on Cannabinoid receptor 1, greater than 30 µM; on D(3) dopamine receptor it was 1.2 µM; in experiment [3], greater than 30 µM. Moreover, the AC50 was greater than 30 µM in experiment [4], greater than 30 µM in [5], 2.5 µM in [6] and greater than 30 µM on Histamine H3 receptor.
As to `CN(C)CCCN1c2ccccc2Sc2ccccc21` [PROMAZINE], the AC50 in experiment [1] is greater than 10 µM; in experiment [2], greater than 30 µM; on Cannabinoid receptor 1, greater than 30 µM; at D(3) dopamine receptor it was 0.075 µM; in experiment [4], greater than 10 µM; on Melanocortin receptor 4, greater than 30 µM. The AC50 was 0.15 µM in experiment [5] and greater than 10 µM on Histamine H3 receptor.
Consider `CN(CCCN1c2ccccc2CCc2ccccc21)CC(=O)c1ccc(Cl)cc1` [LOFEPRAMINE], for which the AC50 was greater than 30 µM in experiment [1]; 0.65 µM on Histamine H1 receptor; greater than 30 µM in experiment [2]; greater than 30 µM at Cannabinoid receptor 1; 3 µM at D(3) dopamine receptor; 2.7 µM in experiment [5]. The AC50 was 0.022 µM in experiment [6] and greater than 30 µM on Histamine H3 receptor.
As to `C[N+](C)(C)CC(=O)O` [BETAINE], the AC50 (in experiment [1]; at Histamine H1 receptor; in experiment [2]; at Cannabinoid receptor 1; on D(3) dopamine receptor; in experiment [3]) was greater than 30 µM throughout. The AC50 (in [4]; in experiment [5]; in experiment [6]; at Histamine H3 receptor) was greater than 30 µM throughout.
As for `N[C@@H](CSCC(=O)O)C(=O)O` [CARBOCYSTEINE], the AC50 (in experiment [1]; at Histamine H1 receptor; in experiment [2]; on Cannabinoid receptor 1; at D(3) dopamine receptor; in experiment [3]) was greater than 30 µM in each case. In addition, the AC50 (in [4]; in [5]; in experiment [6]; at Histamine H3 receptor) was greater than 30 µM throughout.
On to `CC(=O)O[C@]1(C(C)=O)CC[C@H]2[C@@H]3C[C@H](C)C4=CC(=O)CC[C@]4(C)[C@H]3CC[C@@]21C` [MEDROXYPROGESTERONE ACETATE], for which the AC50 (in experiment [2]; in [6]; on Histamine H3 receptor) was greater than 30 µM each time.
On to `NS(=O)(=O)c1cc(-c2nnn[nH]2)c(NCc2cccs2)cc1Cl` [AZOSEMIDE], for which the AC50 (in experiment [1]; on Histamine H1 receptor; in experiment [2]; at Cannabinoid receptor 1; on D(3) dopamine receptor; in experiment [3]) was greater than 30 µM in each case. For the same molecule, the AC50 (in [4]; in experiment [5]; in experiment [6]; on Histamine H3 receptor) was greater than 30 µM throughout.
Consider `N/N=c1/cc2c(n[nH]1)CCN(C(=O)c1ccccc1)C2` [ENDRALAZINE], for which the AC50 (in [1]; at Histamine H1 receptor; at Cannabinoid receptor 1; at D(3) dopamine receptor; in experiment [3]; in experiment [4]) was greater than 30 µM each time. The AC50 in [5] is greater than 30 µM.
Consider `CO/N=C(\C(=O)N[C@@H]1C(=O)N2C(C(=O)OCOC(=O)C(C)(C)C)=C(C)CS[C@H]12)c1csc(N)n1`, for which the AC50 (in [1]; on Histamine H1 receptor; on Cannabinoid receptor 1; on D(3) dopamine receptor; in [3]; in experiment [4]) was greater than 30 µM in each case. Moreover, the AC50 in [5] is greater than 30 µM.
On to `C[N+](C)(C)CCOC(N)=O` [CARBAMOYLCHOLINE], for which the AC50 in [1] was greater than 30 µM; on Cannabinoid receptor 1, greater than 30 µM; on D(3) dopamine receptor, greater than 30 µM; in experiment [4], greater than 10 µM; at Melanocortin receptor 4, greater than 10 µM; in experiment [5], greater than 30 µM. Moreover, the AC50 in experiment [6] was greater than 10 µM.
For the molecule `Nc1ccc(/N=N/c2ccccc2)c(N)n1` [PHENAZOPYRIDINE], the AC50 was greater than 30 µM in experiment [1]; 4.5 µM on Histamine H1 receptor; greater than 30 µM on Cannabinoid receptor 1; 3.1 µM on D(3) dopamine receptor; 3.6 µM in experiment [3]; greater than 30 µM in experiment [4]. Besides, the AC50 in experiment [5] was 1.91 µM.
